Assay results taken from patent US20070197569A1, “Method for treating central nervous system disorders with substituted 2-imidazoline derivatives” (priority 2006, published 2007).

Target: T1, mouse TAAR1 (Mus musculus, UniProt Q923Y8)
T1 construct: expressed in transfected cells; host or cells: HEK293 (ATCC # CRL-1573), stably transfected with pIRESneo2 expression plasmid
Test: Radioligand binding on membranes of HEK293 cells stably expressing TAAR1, [3H]-rac-2-(1,2,3,4-tetrahydro-1-naphthyl)-2-imidazoline
Details: mouse TAAR1; radioligand at 60 nM; 4° C., 30 min incubation
Description: For the construction of expression plasmids the coding sequences of human, rat and mouse TAAR 1 were amplified from genomic DNA essentially as described by Lindemann et al.. The Expand High Fidelity PCR System (Roche Diagnostics) was used with 1.5 mM Mg^2+ and purified PCR products were cloned into pCR2.1-TOPO cloning vector (Invitrogen) following the instructions of the manufacturer. PCR products were subcloned into the pIRESneo2 vector (BD Clontech, Palo Alto, Calif.), and expression vectors were sequence verified before introduction in cell lines.
HEK293 cells (ATCC # CRL-1573) were cultured essentially as described Lindemann et al. (2005). For the generation of stably transfected cell lines HEK293 cells were transfected with the pIRESneo2 expression plasmids containing the TAAR coding sequences (described above) with Lipofectamine 2000 (Invitrogen) according to the instructions of the manufacturer, and 24 hrs post transfection the culture medium was supplemented with 1 mg/ml G418 (Sigma, Buchs, Switzerland). After a culture period of about 10 d clones were isolated, expanded and tested for responsiveness to trace amines (all compounds purchased from Sigma) with the cAMP Biotrak Enzyme immunoassay (EIA) System (Amersham) following the non-acetylation EIA procedure provided by the manufacturer.
Cells at confluence were rinsed with ice-cold phosphate buffered saline without Ca^2+ and Mg^2+ containing 10 mM EDTA and pelleted by centrifugation at 1000 rpm for 5 min at 4° C. The pellet was then washed twice with ice-cold phosphate buffered saline and cell pellet was frozen immediately by immersion in liquid nitrogen and stored until use at −80° C. Cell pellet was then suspended in 20 ml HEPES—NaOH (20 mM), pH 7.4 containing 10 mM EDTA, and homogenized with a Polytron (PT 3000, Kinematica) at 10,000 rpm for 10 s. The homogenate was centrifuged at 48,000×g for 30 min at 4° C. and the pellet resuspended in 20 ml HEPES—NaOH (20 mM), pH 7.4 containing 0.1 mM EDTA (buffer A), and homogenized with a Polytron at 10,000 rpm for 10 s. The homogenate was then centrifuged at 48,000×g for 30 min at 4° C. and the pellet resuspended in 20 ml buffer A, and homogenized with a Polytron at 10,000 rpm for 10 s. Protein concentration was determined by the method of Pierce (Rockford, Ill.). The homogenate was then centrifuged at 48,000×g for 10 min at 4° C., resuspended in HEPES—NaOH (20 mM), pH 7.0 including MgCl2 (10 mM) and […] homogenized with a Polytron at 10,000 rpm for 10 s.
Binding assay was performed at 4° C. in a final volume of 1 ml, and with an incubation time of 30 min. The radioligand [^3H]-rac-2-(1,2,3,4-tetrahydro-1-naphthyl)-2-imidazoline was used at a concentration equal to the calculated Kd value of 60 nM to give a bound at around 0.1% of the total added radioligand concentration, and a specific binding which represented approximately 70-80% of the total binding. Non-specific binding was defined as the amount of [^3H]-rac-2-(1,2,3,4-tetrahydro-1-naphthyl)-2-imidazoline bound in the presence of the appropriate unlabelled ligand (10 μM). Competing ligands were tested in a wide range of concentrations (10 pM-30 μM). […] Each experiment was performed in duplicate. All incubations were terminated by rapid filtration through UniFilter-96 plates (Packard Instrument Company) and glass filter GF/C, pre-soaked for at least 2 h in polyethylenimine 0.3%, and using a Filtermate 96 Cell Harvester (Packard Instrument Company). The tubes and filters were then washed 3 times with 1 ml aliquots of cold buffer B. Filters were not dried and soaked in Ultima gold (45 μl/well, Packard Instrument Company) and bound radioactivity was counted by a TopCount Microplate Scintillation Counter (Packard Instrument Company).

T1 sequence (Q923Y8 whole entry): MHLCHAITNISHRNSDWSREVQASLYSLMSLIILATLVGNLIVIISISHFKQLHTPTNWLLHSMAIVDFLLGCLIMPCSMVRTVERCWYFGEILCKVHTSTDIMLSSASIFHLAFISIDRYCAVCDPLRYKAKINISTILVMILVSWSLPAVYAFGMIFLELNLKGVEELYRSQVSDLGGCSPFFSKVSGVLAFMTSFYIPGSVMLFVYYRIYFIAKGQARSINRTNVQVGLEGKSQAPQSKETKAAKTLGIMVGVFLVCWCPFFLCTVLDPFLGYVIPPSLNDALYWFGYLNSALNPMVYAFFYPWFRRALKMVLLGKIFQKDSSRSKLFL

Compound | Ki
Cc1cccc(C)c1N=C1NCCN1 [Example 2, (4,5-Dihydro-1H-imidazol-2-yl)-(2,6-dimethyl-phenyl)-amine or tautomer] | 0.149 µM
CCc1cccc(CC)c1NC1=NCCN1 [Example 3, (2,6-Diethyl-phenyl)-(4,5-dihydro-1H-imidazol-2-yl)-amine or tautomer] | 0.026 µM
Brc1cccc(Br)c1N=C1NCCN1 [Example 6, (2,6-Dibromo-phenyl)-imidazolidin-2-ylidene-amine or tautomer] | 0.501 µM
CCc1cccc(C)c1NC1=NCCN1 [Example 7, (4,5-Dihydro-1H-imidazol-2-yl)-(2-ethyl-6-methyl-phenyl)-amine or tautomer] | 0.169 µM
Cc1cccc(C(C)C)c1NC1=NCCN1 [Example 8, (4,5-Dihydro-1H-imidazol-2-yl)-(2-isopropyl-6-methyl-phenyl)-amine or tautomer] | 0.476 µM
Cc1ccc(Cl)cc1N=C1NCCN1 [Example 9, (5-Chloro-2-methyl-phenyl)-imidazolidin-2-ylidene-amine or tautomer] | 0.225 µM
O=C(CCc1ccc(NC2=NCCN2)cc1)c1ccc2ccccc2c1 [Example 11, 3-[4-(4,5-Dihydro-1H-imidazol-2-ylamino)-phenyl]-1-naphthalen-2-yl-propan-1-one ortautomer] | 0.121 µM
c1ccc2c(N=C3NCCN3)cccc2c1 [Example 14, Imidazolidin-2-ylidene-naphthalen-1-yl-amineor tautomer] | 0.036 µM
c1cc2c(c(NC3=NCCN3)c1)CCCC2 [Example 15, (4,5-Dihydro-1H-imidazol-2-yl)-(5,6,7,8-tetrahydro-naphthalen-1-yl)-amine or tautomer] | 0.039 µM
Cc1csc(Cl)c1NC1=NCCN1 [Example 16, (2-Chloro-4-methyl-thiophen-3-yl)-(4,5-dihydro-1H-imidazol-2-yl)-amine or tautomer] | 0.294 µM
Clc1cccc(Cl)c1SC1=NCCN1 [Example 18, 2-(2,6-Dichloro-phenylsulfanyl)-4,5-dihydro-1H-imidazole] | 0.03 µM

Same assay, conditions: radioligand used in the TAAR1 binding assay; TAAR1 species not given; read-out: calculated Kd value of the radioligand

Compound | Kd
c1ccc2c(c1)CCCC2C1=NCCN1 (racemic) [[^3H]-rac-2-(1,2,3,4-tetrahydro-1-naphthyl)-2-imidazoline, reference compound] | 60 nM
